As usually defined, the IC50 is the point on the concentration scale where inhibition reaches its midpoint.

The target in this assay is PD-1/PD-L1 protein/protein interaction (Homo sapiens (Human), UniProt Q9NZQ7). Briefly: PD-1/PD-L1 Homogeneous Time-Resolved Fluorescence (HTRF) binding assay. The settings on record: recombinant human PD-L1 (19-238) His-tag, human PD-1 (25-167) Fc tag; 25° C., PBS pH 7.4. How it is done: Example A. PD-1/PD-L1 Homogeneous Time-Resolved Fluorescence (HTRF) Binding Assay
Sequence of PD-1/PD-L1 protein/protein interaction (Q9NZQ7 19-238): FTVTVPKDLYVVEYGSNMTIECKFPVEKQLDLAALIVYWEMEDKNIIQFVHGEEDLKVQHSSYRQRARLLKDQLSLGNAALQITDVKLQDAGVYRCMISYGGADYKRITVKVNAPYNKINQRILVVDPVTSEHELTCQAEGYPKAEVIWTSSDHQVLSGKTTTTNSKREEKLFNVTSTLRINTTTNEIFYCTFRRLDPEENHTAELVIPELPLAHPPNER
The assays were conducted in a standard black 384-well polystyrene plate with a final volume of 20 μL. Inhibitors were first serially diluted in DMSO and then added to the plate wells before the addition of other reaction components. The final concentration of DMSO in the assay was 1%. The assays were carried out at 25° C. in the PBS buffer (pH 7.4) with 0.05% Tween-20 and 0.1% BSA. Recombinant human PD-L1 protein (19-238) with a His-tag at the C-terminus was purchased from AcroBiosystems (PD1-H5229). Recombinant human PD-1 protein (25-167) with Fc tag at the C-terminus was also purchased from AcroBiosystems (PD1-H5257). PD-L1 and PD-1 proteins were diluted in the assay buffer and 10 μL was added to the plate well. Plates were centrifuged and proteins were preincubated with inhibitors for 40 minutes. The incubation was followed by the addition of 10 μL of HTRF detection buffer supplemented with Europium cryptate-labeled anti-human IgG (PerkinElmer-AD0212) specific for Fc and anti-His antibody conjugated to SureLight®-Allophycocyanin (APC, PerkinElmer-AD0059H). After centrifugation, the plate was incubated at 25° C. for 60 min. before reading on a PHERAstar FS plate reader (665 nm/620 nm ratio). Final concentrations in the assay were […], 10 nM PD-L1, 1 nM europium anti-human IgG and 20 nM anti-His-Allophycocyanin. IC50 determination was performed by fitting the curve of percent control activity versus the log of the inhibitor concentration using the GraphPad Prism 5.0 software.

The structures appear in SMILES notation.

In the case of `Cc1c(-c2nc3c(Cl)cc(CNCCO)cn3n2)cccc1-c1cccc(NC(=O)c2ccc(CNCCO)cn2)c1Cl` [Example 2, N-(2-chloro-3′-(8-chloro-6-((2-hydroxyethylamino)methyl)-[1,2,4]triazolo[1,5-a]pyridin-2-yl)-2′-methylbiphenyl-3-yl)-5-((2-hydroxyethylamino)methyl)picolinamide], the IC50 was no more than 10 nM.
Next, `Cc1c(NC(=O)c2ccc(CNCCO)cn2)cccc1-c1cccc(-c2nc3c(Cl)cc(CNCCO)cn3n2)c1C` [Example 1, N-(3′-(8-chloro-6-((2-hydroxyethylamino)methyl)-[1,2,4]triazolo[1,5-a]pyridin-2-yl)-2,2′-dimethylbiphenyl-3-yl)-5-((2-hydroxyethylamino)methyl)picolinamide]: no more than 10 nM; `Cc1c(-c2nc3c(Cl)cc(CNCCO)cn3n2)cccc1-c1cccc(-c2nc3c(s2)CNCC3)c1C` [Example 4, 2-((8-chloro-2-(2,2′-dimethyl-3′-(4,5,6,7-tetrahydrothiazolo[5,4-c]pyridin-2-yl)biphenyl-3-yl)-[1,2,4]triazolo[1,5-a]pyridin-6-yl)methylamino)ethanol]: no more than 10 nM.
With `Cc1c(-c2nc3c(C#N)cc(CNCCO)cn3n2)cccc1-c1cccc(NC(=O)c2ccc(CNCCO)cn2)c1Cl` [Example 3, N-(2-chloro-3′-(8-cyano-6-((2-hydroxyethylamino)methyl)-[1,2,4]triazolo[1,5-a]pyridin-2-yl)-2′-methylbiphenyl-3-yl)-5-((2-hydroxyethylamino)methyl)picolinamide], the IC50 was no more than 10 nM.

These data come from patent US10793565B2, “Heterocyclic compounds as immunomodulators” (Incyte Corporation, priority 2016, dated 2020).
